Experimental data: patent publication US20090023784A1, “USE OF DEFERIPRONE AND METHODS TO TREAT AND/OR PREVENT FRIEDREICH ATAXIA RESULTING FROM INTRACELLULAR MISHANDLING OF IRON” (priority 2006, published 2009)

Columns and labels:
[1] = Serum deferiprone time-concentration profile (HPLC) in the 52-week monkey study; assay type: in vivo, cynomolgus monkeys; conditions: 75 mg/kg twice daily
Procedure: Groups of 4 male and 4 female monkeys (2 to 3 years old) were dosed by nasogastric intubation at (0.5% w/v aqueous carboxymethylcellulose vehicle) 75 mg/kg deferiprone twice daily (bid), with 6-8 hours between doses, for at least 364 days.
Clinical signs, body weights and food intake were assessed at frequent intervals. Ophthalmological and cardiovascular examinations were carried out in Weeks 17, 30, 43, 56 and 60. Hematology, coagulation, clinical chemistry and urine parameters were measured at baseline and in Weeks 8, 16, 30, 41, 56 and 60. Blood samples were taken on the first day of dosing, and in Weeks 17 and 56 for assessment of the serum deferiprone time-concentration profile. A full necropsy was performed on each animal, selected organs weighed, and histopathological examination of abnormalities and selected tissues conducted.

[2] = system: intracellular iron pools of macrophages, hepatocytes, and cardiomyocyte cell lines; conditions: living cells, fluorescence probes; cited from earlier work

## Cc1c(O)c(=O)ccn1C [Deferiprone, 3-hydroxy-1,2-dimethylpyridin-4-one]
[1]
  peak concentration relative to thalassemia patients treated with 25 mg/kg three times daily: about three times
[1]; HPLC
  deferiprone detectable in serum for up to: up to 7 h
  deferiprone detectable in serum from (time after dosing): ≥ 0.5 h
[1]; both sexes, cynomolgus monkey, serum, oral, range in individuals
  half-life: 0.35 to 2.39 h
[2]
  access to intracellular iron pools / chelation: readily enter most cells and efficiently reach the major intracellular sites of iron accumulation
